# In ChEMBL document CHEMBL5625239, “Synthesis of 1,3,5-triphenyl-1,2,4-triazole derivatives and their neuroprotection by anti-oxidative stress and anti-inflammation and protecting BBB” (Eur J Med Chem, 2023):
# The source made the active and inactive calls. No cut-off for these calls is given here.
# How the values were obtained:
# PC-12 [1] = experiment: Protection against SNP-induced cell damage in rat PC-12 cells assessed as reduction in apoptosis by measuring decrease in bright-blue nuclei at 10 uM preincubated with compound for 2 hrs followed by SNP addition and measured after 24 hrs by confocal laser microscopic analysis; assay type: functional, cell-based; conditions: time 26.0 hrs
# Rattus norvegicus [2] = experiment: Neuroprotective activity against middle cerebral artery occlusion induced ischemia stroke Sprague-Dawley rat model assessed as cerebral infarction area at 5 mg/kg, ip measured after 24 hrs by TTC staining based imaging analysis (reference value: 20.08 +/- 5.70); assay type: functional
# RAW264.7 [3] = experiment: Anti-inflammatory activity in mouse RAW264.7 cells assessed as inhibition of LPS-induced NO production preincubated with compound for 1 hrs followed by LPS stimulation and measured after 24 hrs; assay type: functional, cell-based; conditions: time 25.0 hrs
# PC-12 [4] = experiment: Protection against SNP-induced cell damage in rat PC-12 cells assessed as reduction in apoptosis by measuring decrease in cell count at 10 uM preincubated with compound for 2 hrs followed by SNP addition and measured after 24 hrs by confocal laser microscopic analysis; assay type: functional, cell-based; conditions: time 26.0 hrs
# Rattus norvegicus [5] = experiment: Neuroprotective activity against middle cerebral artery occlusion induced ischemia stroke Sprague-Dawley rat model assessed as cerebral infarction area at 20 mg/kg, ip measured after 24 hrs by TTC staining based imaging analysis (reference value: 20.08 +/- 5.70); assay type: functional
# Rattus norvegicus [6] = experiment: Neuroprotective activity against middle cerebral artery occlusion induced ischemia stroke Sprague-Dawley rat model assessed as reduction in serum MMP-9 level administered intraperitoneally and measured after 24 hrs by ELISA; assay type: functional, organism-based; conditions: dose 5-20 mg/kg, route ip
# RAW264.7 [7] = experiment: Anti-inflammatory activity in LPS-induced mouse RAW264.7 cells assessed as decrease in COX-2 expression preincubated with compound for 1 hrs followed by LPS stimulation and measured after 24 hrs by Western blot analysis; assay type: functional, cell-based; conditions: dose 1.25-5 µM, time 25.0 hrs
# RAW264.7 [8] = experiment: Cytotoxicity against mouse RAW264.7 cells assessed as reduction in cell viability at 5 uM incubated for 24 hrs by MTT assay; assay type: toxicity, cell-based; conditions: raw264.7, 24 h
# [9] = target: T1, Prostaglandin G/H synthase 1 (Ovis aries, UniProt P05979); experiment: Inhibition of ovine COX-1 using arachidonic acid as substrate preincubated with compound for 5 mins followed by substrate addition and measured after 2 mins by enzyme immunoassay
# T1 sequence (P05979 whole entry): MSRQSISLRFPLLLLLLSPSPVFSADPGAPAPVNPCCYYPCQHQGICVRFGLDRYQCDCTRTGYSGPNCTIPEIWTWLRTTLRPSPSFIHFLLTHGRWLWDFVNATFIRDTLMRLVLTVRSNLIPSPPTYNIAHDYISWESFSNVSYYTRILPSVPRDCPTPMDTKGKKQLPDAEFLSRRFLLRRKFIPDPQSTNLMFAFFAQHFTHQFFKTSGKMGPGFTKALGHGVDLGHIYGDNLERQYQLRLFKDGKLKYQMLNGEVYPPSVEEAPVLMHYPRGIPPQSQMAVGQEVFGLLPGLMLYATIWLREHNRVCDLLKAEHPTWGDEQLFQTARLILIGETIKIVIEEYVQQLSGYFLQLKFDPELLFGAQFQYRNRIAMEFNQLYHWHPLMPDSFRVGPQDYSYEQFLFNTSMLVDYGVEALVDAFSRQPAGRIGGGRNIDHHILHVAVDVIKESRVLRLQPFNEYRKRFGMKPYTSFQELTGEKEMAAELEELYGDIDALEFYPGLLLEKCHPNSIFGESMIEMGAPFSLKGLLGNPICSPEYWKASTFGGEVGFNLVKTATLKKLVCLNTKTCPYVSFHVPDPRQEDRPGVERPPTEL
# Rattus norvegicus [10] = experiment: Neuroprotective activity against middle cerebral artery occlusion induced ischemia stroke Sprague-Dawley rat model assessed as reduction in MDA level in serum at 20 mg/kg, ip measured after 24 hrs by ELISA; assay type: functional, organism-based
# PC-12 [11] = experiment: Protection against SNP-induced cell damage in rat PC-12 cells assessed as inhibition of ROS accumulation by measuring reduction in green fluorescence intensity at 10 uM preincubated with compound for 2 hrs followed by SNP addition and measured after 24 hrs by laser confocal microscopic analysis; assay type: functional, cell-based; conditions: time 26.0 hrs
# Rattus norvegicus [12] = experiment: Neuroprotective activity against middle cerebral artery occlusion induced ischemia stroke Sprague-Dawley rat model assessed as reduction in glycocalyx degradation by measuring decrease in serum syndecan-1 level at 5 to 20 mg/kg, ip measured after 24 hrs by ELISA; assay type: functional, organism-based; conditions: dose 5-20 mg/kg
# Rattus norvegicus [13] = experiment: Neuroprotective activity against middle cerebral artery occlusion induced ischemia stroke Sprague-Dawley rat model assessed as reduction in glycocalyx degradation by measuring decrease in serum heparan sulfate level at 5 to 20 mg/kg, ip measured after 24 hrs by ELISA; assay type: functional, organism-based; conditions: dose 5-20 mg/kg
# [14] = Acute toxicity in ip dosed mouse assessed as lethal dose; assay type: organism-based; conditions: in vivo
# [15] = target: Kelch-like ECH-associated protein 1 (Homo sapiens, UniProt Q14145); experiment: Binding affinity to CM5 chip immobilized KEAP1 Kelch domain (unknown origin) assessed as dissociation equilibrium constant by SPR analysis
# Rattus norvegicus [16] = experiment: Neuroprotective activity against middle cerebral artery occlusion induced ischemia stroke Sprague-Dawley rat model assessed as neurological severity score at 5 mg/kg, ip measured after 24 hrs by behavioral test (reference value: 10.50 +/- 2.72); assay type: functional
# [17] = Acute toxicity in mouse assessed as mortality at 1000 mg/kg, ip; assay type: organism-based; conditions: in vivo
# Rattus norvegicus [18] = experiment: Neuroprotective activity against middle cerebral artery occlusion induced ischemia stroke Sprague-Dawley rat model assessed as reduction in glycocalyx degradation by measuring decrease in serum hyaluronic acid level administered intraperitoneally and measured after 24 hrs by ELISA; assay type: functional, organism-based; conditions: dose 5-20 mg/kg, route ip
# Rattus norvegicus [19] = experiment: Neuroprotective activity against middle cerebral artery occlusion induced ischemia stroke Sprague-Dawley rat model assessed as increase in SOD level in serum at 20 mg/kg, ip measured after 24 hrs by ELISA; assay type: functional, organism-based
# PC-12 [20] = experiment: Protection against SNP-induced cell damage in rat PC-12 cells assessed as reduction in apoptosis by measuring normal nuclear staining at 10 uM preincubated with compound for 2 hrs followed by SNP addition and measured after 24 hrs by confocal laser microscopic analysis; assay type: functional, cell-based; conditions: time 26.0 hrs
# Rattus norvegicus [21] = experiment: Neuroprotective activity against middle cerebral artery occlusion induced ischemia stroke Sprague-Dawley rat model assessed as cerebral infarction area at 10 mg/kg, ip measured after 24 hrs by TTC staining based imaging analysis (reference value: 20.08 +/- 5.70); assay type: functional
# RAW264.7 [22] = experiment: Anti-inflammatory activity in LPS-induced mouse RAW264.7 cells assessed as decrease in iNOS expression preincubated with compound for 1 hrs followed by LPS stimulation and measured after 24 hrs by Western blot analysis; assay type: functional, cell-based; conditions: dose 1.25-5 µM, time 25.0 hrs
# Rattus norvegicus [23] = experiment: Neuroprotective activity against middle cerebral artery occlusion induced ischemia stroke Sprague-Dawley rat model assessed as neurological severity score at 20 mg/kg, ip measured after 24 hrs by behavioral test (reference value: 10.50 +/- 2.72); assay type: functional
# Rattus norvegicus [24] = experiment: Neuroprotective activity against middle cerebral artery occlusion induced ischemia stroke Sprague-Dawley rat model assessed as reduction in TNF-alpha level in serum at 20 mg/kg, ip measured after 24 hrs by ELISA; assay type: functional, organism-based
# [25] = target: Voltage-gated inwardly rectifying potassium channel KCNH2 (Homo sapiens, UniProt Q12809); experiment: Inhibition of hERG in HEK293 cells by whole-cell patch clamp electrophysiological recording; assay type: toxicity, cell-based
# Rattus norvegicus [26] = experiment: Neuroprotective activity against middle cerebral artery occlusion induced ischemia stroke Sprague-Dawley rat model assessed as reduction in IL-1beta level in serum at 20 mg/kg, ip measured after 24 hrs by ELISA; assay type: functional, organism-based
# RAW264.7 [27] = experiment: Anti-inflammatory activity in LPS-induced mouse RAW264.7 cells assessed as reduction in PGE2 level preincubated with compound for 1 hrs followed by LPS stimulation and measured after 24 hrs by ELISA; assay type: functional, cell-based; conditions: time 25.0 hrs
# PC-12 [28] = experiment: Neuroprotective activity against SNP-induced cell damage in rat PC-12 cells pretreated with compound for 2 hrs followed by SNP addition and measured after 24 hrs by MTT assay; assay type: functional, cell-based; conditions: dose 2.5-100 µM, time 26.0 hrs
# [29] = Acute toxicity in mouse assessed as effect on behavior at 1000 mg/kg, ip; assay type: organism-based; conditions: in vivo
# Rattus norvegicus [30] = experiment: Neuroprotective activity against middle cerebral artery occlusion induced ischemia stroke Sprague-Dawley rat model assessed as neurological severity score at 10 mg/kg, ip measured after 24 hrs by behavioral test (reference value: 10.50 +/- 2.72); assay type: functional
# PC-12 [31] = experiment: Protection against SNP-induced cell damage in rat PC-12 cells at 10 uM pretreated with compound for 2 hrs followed by SNP addition and measured after 24 hrs by MTT assay; assay type: functional, cell-based; conditions: time 26.0 hrs
# Sequence of Kelch-like ECH-associated protein 1 (Q14145 whole entry, the tested form may be a part): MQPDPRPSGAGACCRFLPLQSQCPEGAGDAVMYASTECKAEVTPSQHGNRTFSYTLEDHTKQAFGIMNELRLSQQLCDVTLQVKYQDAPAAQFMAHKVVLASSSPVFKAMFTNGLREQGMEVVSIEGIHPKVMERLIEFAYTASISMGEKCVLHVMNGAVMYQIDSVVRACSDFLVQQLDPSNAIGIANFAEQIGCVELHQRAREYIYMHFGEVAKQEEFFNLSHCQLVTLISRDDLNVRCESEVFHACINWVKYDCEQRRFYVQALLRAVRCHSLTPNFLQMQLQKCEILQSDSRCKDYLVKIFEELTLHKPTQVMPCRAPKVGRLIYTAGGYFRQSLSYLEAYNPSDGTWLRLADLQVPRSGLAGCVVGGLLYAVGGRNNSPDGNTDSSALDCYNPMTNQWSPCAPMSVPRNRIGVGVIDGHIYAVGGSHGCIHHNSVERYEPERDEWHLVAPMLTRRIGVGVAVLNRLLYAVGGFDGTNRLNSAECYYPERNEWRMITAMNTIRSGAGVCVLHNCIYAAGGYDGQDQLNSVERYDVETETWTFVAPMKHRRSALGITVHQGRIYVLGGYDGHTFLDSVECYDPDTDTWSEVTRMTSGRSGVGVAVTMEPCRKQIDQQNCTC
# Sequence of Voltage-gated inwardly rectifying potassium channel KCNH2 (Q12809 whole entry): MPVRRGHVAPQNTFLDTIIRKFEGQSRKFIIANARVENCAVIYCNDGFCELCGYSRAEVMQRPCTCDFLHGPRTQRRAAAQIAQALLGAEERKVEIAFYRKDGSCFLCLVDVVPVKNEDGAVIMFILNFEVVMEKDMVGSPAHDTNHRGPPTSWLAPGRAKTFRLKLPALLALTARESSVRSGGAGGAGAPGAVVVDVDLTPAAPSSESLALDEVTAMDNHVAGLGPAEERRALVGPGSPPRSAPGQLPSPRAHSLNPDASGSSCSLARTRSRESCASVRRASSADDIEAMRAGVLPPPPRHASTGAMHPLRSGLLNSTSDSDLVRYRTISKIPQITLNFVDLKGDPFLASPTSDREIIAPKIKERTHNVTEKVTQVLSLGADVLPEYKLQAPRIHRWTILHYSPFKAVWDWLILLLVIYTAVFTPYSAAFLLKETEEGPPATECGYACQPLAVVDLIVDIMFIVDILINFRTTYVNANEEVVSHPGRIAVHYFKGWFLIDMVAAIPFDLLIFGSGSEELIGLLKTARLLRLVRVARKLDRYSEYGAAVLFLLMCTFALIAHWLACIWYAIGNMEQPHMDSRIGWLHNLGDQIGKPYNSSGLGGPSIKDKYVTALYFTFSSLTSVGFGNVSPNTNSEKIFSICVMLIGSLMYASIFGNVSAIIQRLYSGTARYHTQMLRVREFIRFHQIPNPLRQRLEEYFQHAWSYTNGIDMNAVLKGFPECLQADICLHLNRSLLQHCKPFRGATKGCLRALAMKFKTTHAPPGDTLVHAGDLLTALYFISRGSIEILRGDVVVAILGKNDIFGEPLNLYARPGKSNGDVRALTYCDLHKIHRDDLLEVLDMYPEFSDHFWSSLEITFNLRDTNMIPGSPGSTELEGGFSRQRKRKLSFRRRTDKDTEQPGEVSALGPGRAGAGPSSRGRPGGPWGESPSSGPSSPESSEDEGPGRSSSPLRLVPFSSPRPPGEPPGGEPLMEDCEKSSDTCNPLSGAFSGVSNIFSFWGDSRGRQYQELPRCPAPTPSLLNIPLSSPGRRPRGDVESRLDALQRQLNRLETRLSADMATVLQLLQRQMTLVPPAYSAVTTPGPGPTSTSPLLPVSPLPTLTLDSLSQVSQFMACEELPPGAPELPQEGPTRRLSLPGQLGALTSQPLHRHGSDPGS
structure (smiles),measurement,setting,value
NS(=O)(=O)c1ccc(-n2nc(-c3ccc(C(F)(F)F)cc3O)nc2-c2ccccc2O)cc1,Activity,PC-12 [1],Active
same,Activity,Rattus norvegicus [2],18.52
same,Activity,RAW264.7 [3],Active
same,Activity,PC-12 [4],Active
same,Activity,Rattus norvegicus [5],15.61
same,Activity,Rattus norvegicus [6],Dose-Dependent Effect
same,Activity,RAW264.7 [7],Dose-Dependent Effect
same,Activity,RAW264.7 [8],Non-Toxic
same,IC50,[9],86.5 µM
same,Activity,Rattus norvegicus [10],Active
same,Activity,PC-12 [11],Active
same,Activity,Rattus norvegicus [12],Active
same,Activity,Rattus norvegicus [13],Active
same,LD50,[14],> 1000 mg/kg
same,Kd,[15],16.5 µM
same,Activity,Rattus norvegicus [16],9.2
same,Activity,[17],Non-Toxic
same,Activity,Rattus norvegicus [18],Dose-Dependent Effect
same,Activity,Rattus norvegicus [19],Active
same,Activity,PC-12 [20],Active
same,Activity,Rattus norvegicus [21],17.43
same,Activity,RAW264.7 [22],Dose-Dependent Effect
same,Activity,Rattus norvegicus [23],7.4
same,Activity,Rattus norvegicus [24],Active
same,IC50,[25],> 30 µM
same,Activity,Rattus norvegicus [26],Active
same,Activity,RAW264.7 [27],Active
same,Activity,PC-12 [28],Dose-Dependent Effect
same,Activity,[29],Non-Toxic
same,Activity,Rattus norvegicus [30],9.25
same,Activity,PC-12 [31],Active
